Like-named read-outs stand apart in the source and are kept apart here.
Assays:
[1] = Redispersing of polymer/active substance compositions in buffer, general procedure 1; format: physicochemical; set-up: key: 1: unsatisfactory redispersing, sediment; 2: no ambiguous assessment possible; 3: complete redispersing with clouding (weak to opaque); 4: clear solution; conditions: phosphate buffer pH 6.8
Description: Each time 1 or 10% by weight solutions in N,N-dimethylformamide (DMF) of the hyperbranched polymer to be assessed and also 0.1% by weight solutions of the active substances, likewise in DMF, were provided. Active substance compositions were prepared by mixing in a Tecan pipetting robot with the use of 1 ml flat-bottomed glass vessels from HJ-Bioanalytik (96-well plates in the deep well format). Each time 50 μl of polymer and 500 μl of active substance solution were added to a vessel and the solvent was subsequently removed by drying for 24 hours in a vacuum-drying chamber at 70° C. and a pressure of less than 10 mbar. The test samples were subsequently redispersed by addition of 500 μl of buffer solution (phosphate buffer pH 6.8, 23.05 g of potassium dihydrogenphosphate, 23.30 g of disodium hydrogenphosphate, deionized water made up to 5000 ml) and subsequent shaking for two hours using an HP MTP shaker. The assessment was carried out by measuring the particle size using diffusion light scattering after a resting phase of 2 h.
1=unsatisfactory redispersing, sediment 2=no ambiguous assessment possible 3=complete redispersing with clouding (weak to opaque) 4=clear solution
Determination of the properties of aqueous active substance compositions according to general procedure 1. Use was made of bentazon at a polymer/active substance ratio of 1:1 and metazachlor at a polymer/active substance ratio of 10:1.

[2] = Solubility from solid dispersion with hyperbranched polymer, general procedure 2; format: physicochemical; conditions: for solubility at 24 h: pH 6.8, aqueous with cosolvent or surfactant or cyclodextrin, thermodynamic from solid
Description: 0.5 g of the chosen polymer and 0.1 g of a compound to be dissolved in water were dissolved in approximately 20 ml of N,N-dimethylformamide (DMF). The mixture was stirred and subsequently freed from DMF. A solid dispersion of the chosen copolymer with the chosen compound to be dissolved was obtained. The solid dispersion was added to 100 ml of water (buffered to pH 6.8) and the mixture was stirred for 24 h. After filtration, solutions were obtained and their contents of the compound to be dissolved were determined using HPLC and a UV detector. The literature values for water solubilities of the chosen compounds and the wavelengths of the measurement by UV spectroscopy are listed in table 1:
Determination of the properties of aqueous active substance compositions according to general procedure 2.

[3] = literature values, Table 1; cited from earlier work
[4] = Solubility in supersaturated polymer solution, general procedure 3; format: physicochemical; conditions: phosphate buffer pH 7.0 with hyperbranched polymer, pH 7, aqueous with cosolvent or surfactant or cyclodextrin, thermodynamic from solid, 0.2 g piroxicam, 20 g phosphate buffer pH 7.0, UV spectroscopy
Description: Approximately 2 g of polymer were weighed out in a glass beaker. Subsequently, 0.2 g of piroxicam or 0.3 g of carbamazepine was each time weighed out into the charge in order to obtain a supersaturated solution. Subsequently, 20 g of phosphate buffer pH 7.0 were added. After filtration, solutions were obtained and their contents of the compound to be dissolved were determined by UV spectroscopy.
Determination of the properties of aqueous active substance compositions according to general procedure 3.

[5] = literature values, Table 2; cited from earlier work
[6] = water buffered to pH 6.8 with hyperbranched polymer, 0.5 g polymer, 0.1 g compound, 100 ml water buffered to pH 6.8, stirred 24 h, HPLC/UV, read-out: Solubility in the presence of Polymer 5
[7] = water buffered to pH 6.8 with hyperbranched polymer, Solubility in the presence of Polymer 1, 0.5 g polymer, 0.1 g compound, 100 ml water buffered to pH 6.8, stirred 24 h, HPLC/UV

CC(C)N1C(=O)c2ccccc2NS1(=O)=O [Bentazon]
Assessment ([1]; Polymer from example 1, polymer/active substance ratio 1:1): 4 | Assessment ([1]; Polymer from example 6, polymer/active substance ratio 1:1): 4

NC(=O)N1c2ccccc2C=Cc2ccccc21 [Carbamazepine]
solubility at 24 h [2, 6]: 190 µg/mL | solubility at 24 h [2, 7]: 181 µg/mL | solubility at 24 h ([2]; water buffered to pH 6.8 with hyperbranched polymer, Solubility in the presence of Polymer 4, 0.5 g polymer, 0.1 g compound, 100 ml water buffered to pH 6.8, stirred 24 h, HPLC/UV): 336 µg/mL | Water solubility (without polymer) [3]: 120 µg/mL

CCOC(=O)/C(Cl)=C/c1cc(N2C(=O)C3=C(CCCC3)C2=O)ccc1Cl [Cinidon-ethyl]
Solubility in the presence of Polymer 1 ([2]; 0.5 g polymer, 0.1 g compound, 100 ml water buffered to pH 6.8, stirred 24 h, HPLC/UV): 97 µg/mL | Water solubility (without polymer) [3]: 0.057 µg/mL

N#Cc1nn(-c2c(Cl)cc(C(F)(F)F)cc2Cl)c(N)c1[S+]([O-])C(F)(F)F (centres unmarked) [Fipronil]
solubility at 24 h ([2]; Solubility in the presence of Polymer 1): 448 µg/mL

Cc1cccc(C)c1N(Cn1cccn1)C(=O)CCl [Metazachlor]
Assessment ([1]; Polymer from example 1, polymer/active substance ratio 10:1): 3 | Assessment ([1]; Polymer from example 6, polymer/active substance ratio 10:1): 3

CN1C(C(=O)Nc2ccccn2)=C(O)c2ccccc2S1(=O)=O [Piroxicam]
solubility at 24 h [2, 6]: 1110 µg/mL | solubility at 24 h [2, 7]: 1020 µg/mL | solubility ([4]; Solubility in the presence of Polymer 1, approx. 2 g polymer): 9200 µg/mL | solubility ([4]; approx. 2 g polymer, read-out: Solubility in the presence of Polymer 3): 5300 µg/mL | Water solubility (without polymer) [5]: 420 µg/mL | Water solubility (without polymer) [3]: 200 µg/mL

— US20130123108A1, “ACTIVE SUBSTANCE COMPOSITION COMPRISING AT LEAST ONE NITROGEN ATOM-CONTAINING, HYPERBRANCHED POLYMER” (BASF SE, priority 2005, published 2013)
